The values below come from publication PMC8151276, “An Integrated Approach toward NanoBRET Tracers for Analysis of GPCR Ligand Engagement” (Molecules, 2021).

Common to all, as to assay type: binding
One test addresses T1, F2RL3 (Homo sapiens, UniProt Q96RI0).
T1 construct: purchased Promega (in-house HiBiT-GPCR construct library, NanoBRET)
T1 sequence (Q96RI0 18-385): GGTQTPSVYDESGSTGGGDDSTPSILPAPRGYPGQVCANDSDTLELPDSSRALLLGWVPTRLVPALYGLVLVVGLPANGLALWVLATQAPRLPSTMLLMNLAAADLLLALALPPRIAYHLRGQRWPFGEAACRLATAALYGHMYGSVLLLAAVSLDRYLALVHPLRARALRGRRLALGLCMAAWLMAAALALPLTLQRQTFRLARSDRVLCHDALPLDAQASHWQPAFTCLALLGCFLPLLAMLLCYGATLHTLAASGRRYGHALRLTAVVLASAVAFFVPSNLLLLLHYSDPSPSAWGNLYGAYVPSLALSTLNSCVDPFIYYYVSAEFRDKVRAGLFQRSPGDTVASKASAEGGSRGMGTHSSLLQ
The experiment in a line: NanoBRET screen HiBiT-F2RL3 in HEK293. As for the experimental part:
(§1) Each tracer candidate was screened across the entire library of HiBiT-GPCR constructs using NanoBRET as the detection modality. As depicted in Figure 4A, the specificity of interactions was evaluated through decrease in BRET due to competitive displacement of a bound tracer by excess parental compound. Each tracer was analyzed for binding to each HiBiT-GPCR fusion in the absence and in the presence of competing parental compound. Briefly, HEK293 cells were transfected with HiBiT-GPCR constructs diluted into promoterless DNA to reduce expression and maximize translocation to the cell surface. Each tracer candidate was then screened at concentrations of 1 μM and 0.1 μM across cells expressing these fusions. Cells were treated for 1.5 h with tracer either alone or in the presence of 20 μM competing parental compound (i.e., control). BRET was measured upon addition of purified LgBiT and subsequent complementation with HiBiT genetically fused to a GPCR. The specificity of interactions was assessed through a decrease in BRET signal due to competitive displacement of the bound tracer. To further gauge the robustness of these interactions, the fold response over the control (i.e., BRETtracer/BRETcontrol) was calculated. We chose a 1.5-fold response, which translates to ≥7-fold signal over noise as the minimal threshold required to score an interaction as positive. […]. Below we highlight the screening results obtained for our exemplary fluorescent tracers based on Clozapine, Amitriptyline and AZD1283.
(§2) HiBiT-GPCR DNA constructs were diluted in 10 mM Tris pH 8 to a final concentration of 0.01 μg/μL, arrayed in 96-well plates and stored at −20 °C. For transfection, HEK293 cells were suspended in Opti-MEM (without phenol red) supplemented with 2% fetal bovine serum (Seradigm) and 100 units/mL penicillin–streptomycin (Gibco) at a final concentration of 220,000 cells/mL and dispensed into white 96-well plates at 90 μL/well. Subsequent transfections and screens were carried using an Agilent Bravo Automated Liquid Handling Platform. First, the 96-well HiBiT DNA arrays were diluted 25-fold in Opti-MEM (without serum or phenol red) to a final concentration of 0.0004 μg/μL and 20 μL of the diluted DNAs were transferred into new 96-well plates. Next, promoterless carrier DNA (1 μg/μL) was diluted 25-fold (0.04 μg/μL) and then dispensed into the diluted arrays at 20 μL/well. Following brief mixing, Viafect transfection reagent (Promega) diluted 16-fold into Opti-MEM was dispensed into the plates at 40 μL/well. After mixing by pipetting, plates were incubated for 10 min on the pipetting station deck. The DNA-transfection reagent complexes were then added to plates containing cells. To facilitate the screen, 10 μL of DNA-transfection reagent complexes were added in duplicates to the top 4 and bottom 4 rows, resulting in two identical 48-well arrays per plate. Plates with transfected cells were incubated for 18–20 h at 37 °C/5% CO2. A screen of each tracer across the entire library using two different concentrations requires duplicate plates of transfected cells. Depending on the number of tracers being screened, transfections can be scaled up using the same ratios. The next day, for each tracer, four 20× screening solutions in tracer dilution buffer (Promega) were prepared: two duplicates at final concentration of 20 μM and two duplicates at a final concentration of 2 μM. A competing unmodified compound was added to one of each duplicate at a final concentration of 400 μM. The four resulting solutions were diluted 4-fold in Opti-MEM without serum or phenol red to generate 5× solutions (5 µM and 0.5 µM tracer +/− 100 μM competing compound). To screen the library, a BioTek MultiFlo FX liquid dispenser was used to dispense 22.5 µL of tracer solution to the top 4 rows and 22.5 µL tracer + competing compound solution to the 4 bottom rows. Plates were briefly mixed on an orbital shaker and incubated for 1.5 h at room temperature. […]
Background: In BRET a luciferase serves as donor, and the signal depends on an acceptor being close.

Another test concerns the target T2, F2RL2 (Homo sapiens, UniProt O00254).
T2 construct: purchased Promega (in-house HiBiT-GPCR construct library, NanoBRET)
T2 sequence (O00254 22-374): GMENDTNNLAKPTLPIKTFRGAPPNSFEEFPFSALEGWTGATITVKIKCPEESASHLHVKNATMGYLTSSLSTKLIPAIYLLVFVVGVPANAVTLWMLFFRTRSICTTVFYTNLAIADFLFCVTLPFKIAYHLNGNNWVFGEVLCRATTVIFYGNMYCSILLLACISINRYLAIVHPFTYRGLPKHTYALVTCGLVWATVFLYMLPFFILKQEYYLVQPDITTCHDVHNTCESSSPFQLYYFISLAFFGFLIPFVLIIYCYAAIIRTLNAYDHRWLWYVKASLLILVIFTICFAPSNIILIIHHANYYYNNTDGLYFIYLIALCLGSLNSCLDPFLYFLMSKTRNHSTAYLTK
As to the kind of experiment: NanoBRET screen HiBiT-F2RL2 in HEK293. As for the experimental part:
as §1, §2

The target of a further test is T3, MC3R (Homo sapiens, UniProt P41968).
T3 construct: purchased Promega (in-house HiBiT-GPCR construct library, NanoBRET)
T3 sequence (P41968 whole entry): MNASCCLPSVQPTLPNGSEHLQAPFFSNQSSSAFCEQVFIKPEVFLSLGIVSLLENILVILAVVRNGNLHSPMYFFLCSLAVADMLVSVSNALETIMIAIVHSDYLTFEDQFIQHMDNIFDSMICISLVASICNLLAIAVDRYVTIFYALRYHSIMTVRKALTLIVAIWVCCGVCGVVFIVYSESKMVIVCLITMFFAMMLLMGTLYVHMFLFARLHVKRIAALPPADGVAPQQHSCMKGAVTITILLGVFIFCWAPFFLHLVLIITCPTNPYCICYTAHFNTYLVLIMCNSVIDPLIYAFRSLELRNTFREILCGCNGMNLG
The experiment in a line: NanoBRET screen HiBiT-MC3R in HEK293. As for the experimental part: as §1, §2

The mark [1] stands for this setting: tracer at 1μM, listed as amitriptyline-b-2-NB590.

In the case of `CC(C)N(CC[C@H](c1ccccc1)c1cc(CCNC(=O)c2ccc(CNC(=O)CCc3ccc4n3[B-](F)(F)[N+]3=C(c5ccc[nH]5)C=CC3=C4)cc2)ccc1O)C(C)C` [Tolterodine-BZ-NB590], the “NanoBRET Fold Response” value on F2RL3 (F2RL3, tracer 0.1μM) was 1.03; at F2RL3 (F2RL3, tracer 1μM), 1.06; on F2RL2 (F2RL2, tracer 0.1μM), 1.01; on F2RL2 (F2RL2, tracer 1μM) it was 1.04; at MC3R (MC3R, tracer 0.1μM) it was 1.03; on MC3R (MC3R, tracer 1μM), 1.01.

As to `O=C(CCc1ccc2n1[B-](F)(F)[N+]1=C(c3ccc[nH]3)C=CC1=C2)NCCOCCOCCNC(=O)OCCOCCN1CCN(C2=Nc3ccccc3Sc3ccccc32)CC1` [Quetiapine-a-2-NB590], the “NanoBRET Fold Response” value on F2RL3 (F2RL3, tracer 0.1μM) stood at 1.09; at F2RL3 (F2RL3, tracer 1μM), 0.84; on F2RL2 (F2RL2, tracer 0.1μM), 1.06; at F2RL2 (F2RL2, tracer 1μM), 0.89; on MC3R (MC3R, tracer 0.1μM) it was 0.98; on MC3R (MC3R, tracer 1μM) it was 1.08.

As for `CN1CCN(C2=Nc3cc(Cl)ccc3Nc3ccc(CNC(=O)CCOCCOCCOCCOCCNC(=O)CCc4ccc5n4[B-](F)(F)[N+]4=C(c6ccc[nH]6)C=CC4=C5)cc32)CC1` [Clozapine-b-2-NB590], the “NanoBRET Fold Response” value on F2RL3 (F2RL3, 0.1μM tracer) was found to be 0.99; on F2RL3 (F2RL3, 1μM tracer) it was 1.05; on F2RL2 (F2RL2, 0.1μM tracer), 1.01; on F2RL2 (F2RL2, 1μM tracer) it was 1.02; on MC3R (MC3R, 0.1μM tracer), 1.05; at MC3R (MC3R, 1μM tracer), 0.94.

Regarding `CC(C)N(CC[C@H](c1ccccc1)c1cc(CCNC(=O)CCOCCOCCOCCOCCNC(=O)CCc2ccc3n2[B-](F)(F)[N+]2=C(c4ccc[nH]4)C=CC2=C3)ccc1O)C(C)C` [Tolterodine-2-NB590], the “NanoBRET Fold Response” value was determined as 1.08 at F2RL3 (F2RL3, tracer 0.1μM); 0.97 on F2RL3 (F2RL3, tracer 1μM); 1.02 at F2RL2 (F2RL2, tracer 0.1μM); 1.04 on F2RL2 (F2RL2, tracer 1μM); 0.82 at MC3R (MC3R, tracer 0.1μM); 1.04 on MC3R (MC3R, tracer 1μM).

On to `Cc1cc2c(s1)Nc1ccccc1N=C2N1CCN(CCCNC(=O)CCOCCOCCOCCOCCNC(=O)CCc2ccc3n2[B-](F)(F)[N+]2=C(c4ccc[nH]4)C=CC2=C3)CC1` [Olanzapine-a-2-NB590], for which the “NanoBRET Fold Response” value came to 1.04 at F2RL3 (F2RL3, tracer 0.1μM); 0.98 on F2RL3 (F2RL3, tracer 1μM); 0.97 at F2RL2 (F2RL2, tracer 0.1μM); 1.01 at F2RL2 (F2RL2, tracer 1μM); 1.00 on MC3R (MC3R, tracer 0.1μM); 1.12 on MC3R (MC3R, tracer 1μM).

On to `N#CN=C(NCCCOc1cccc(CN2CCCCC2)c1)NCCNC(=O)CCOCCOCCOCCOCCNC(=O)CCc1ccc2n1[B-](F)(F)[N+]1=C(c3ccc[nH]3)C=CC1=C2` [Aminopotentidine-2-NB590], for which the “NanoBRET Fold Response” value at F2RL3 (F2RL3, tracer 0.1μM) is listed as 0.99; at F2RL3 (F2RL3, tracer 1μM), 1.06; at F2RL2 (F2RL2, tracer 0.1μM), 0.95; at F2RL2 (F2RL2, tracer 1μM), 1.02; on MC3R (MC3R, tracer 0.1μM), 1.00; at MC3R (MC3R, tracer 1μM), 1.01.

For the compound `Cc1nc2n(c(=O)c1CCN1CCC(c3noc4cc(F)ccc34)CC1)CCCC2OC(=O)NCCOCCOCCOCCOCCNC(=O)CCc1ccc2n1[B-](F)(F)[N+]1=C(c3ccc[nH]3)C=CC1=C2` (stereo not drawn) [Risperidone-2-NB590], the “NanoBRET Fold Response” value came out at 0.98 on F2RL3 (F2RL3, tracer 0.1μM); 0.97 at F2RL3 (F2RL3, tracer 1μM); 0.94 on F2RL2 (F2RL2, tracer 0.1μM); 1.08 on F2RL2 (F2RL2, tracer 1μM); 0.99 on MC3R (MC3R, tracer 0.1μM); 0.95 on MC3R (MC3R, tracer 1μM).

Take `CN(C)CCC=C1c2ccccc2CCc2ccc(C(=O)NCCNC(=O)CCOCCOCCOCCOCCNC(=O)CCc3ccc4n3[B-](F)(F)[N+]3=C(c5ccc[nH]5)C=CC3=C4)cc21` [Amitriptyline-b-2-NB590]: the “NanoBRET Fold Response” value at F2RL3 (tracer at 0.1μM, listed as amitriptyline-b-2-NB590) stood at 0.94; on F2RL3 (setting [1]), 1.04; on F2RL2 (tracer at 0.1μM), 1.16; at F2RL2 (setting [1]), 0.92; on MC3R (tracer at 0.1μM) it was 0.98; at MC3R (tracer at 1μM) it was 0.98.
